# Experimental data from patent US20230279020A9, “CARM1 INHIBITORS AND USES THEREOF” (Epizyme, Inc., priority 2013, published 2023).
# Target: Human CARM1 (PRMT4) (Homo sapiens (Human), UniProt Q86X55)
# Experiment: CARM1 enzyme assay on peptide substrate (3H-SAM Flashplate)
# Settings: Biochemical potencies, classification codes; read-out: Biochem IC50
# Chain of Human CARM1 (PRMT4) (Q86X55 other isoform, or with tags, fused parts or gaps isoform Q86X55-1): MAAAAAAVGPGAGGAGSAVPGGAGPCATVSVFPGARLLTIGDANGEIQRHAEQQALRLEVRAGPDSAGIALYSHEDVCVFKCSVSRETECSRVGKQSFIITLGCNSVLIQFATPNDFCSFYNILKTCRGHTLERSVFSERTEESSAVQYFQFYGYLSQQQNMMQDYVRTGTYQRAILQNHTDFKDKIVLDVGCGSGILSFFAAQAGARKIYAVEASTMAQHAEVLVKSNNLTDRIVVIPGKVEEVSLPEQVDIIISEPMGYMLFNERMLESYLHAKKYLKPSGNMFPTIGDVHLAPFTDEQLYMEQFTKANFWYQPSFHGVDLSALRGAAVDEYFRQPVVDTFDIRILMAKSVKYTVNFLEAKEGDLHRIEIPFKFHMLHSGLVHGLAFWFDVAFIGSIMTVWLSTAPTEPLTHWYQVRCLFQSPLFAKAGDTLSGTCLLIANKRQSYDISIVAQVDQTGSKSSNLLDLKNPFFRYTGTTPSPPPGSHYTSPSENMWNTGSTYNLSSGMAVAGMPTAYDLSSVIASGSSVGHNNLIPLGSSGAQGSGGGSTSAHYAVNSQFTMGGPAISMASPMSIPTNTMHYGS
row,Compound,IC50 [nM]
1,CNC[C@@H](O)COc1ccc(Cl)c(-c2nc(N[C@H]3C[C@@H](OC)C3)c(C)c(-c3c(C)noc3C)n2)c1 [Example 144-3],< 100
2,CNC[C@@H](O)COc1ccc(Cl)c(-c2nc(NC3CC4(C3)CN(C(=O)OC)C4)c(C)c(-c3c(C)noc3C)n2)c1 [Example 146-3],< 100
3,CNC[C@@H](O)COc1ccc(Cl)c(-c2nc(N[C@H]3CCN(C)C[C@H]3F)c(C)c(-c3c(C)noc3C)n2)c1 [Example 147-3],< 100
4,CNC[C@@H](O)COc1ccc(Cl)c(-c2nc(N[C@H]3CO[C@@H](C)C3)c(Cl)c(-c3c(C)noc3C)n2)c1 [Example 148-3],< 100
5,CNC[C@@H](O)COc1ccc(Cl)c(-c2nc(N[C@H]3CCO[C@@H](C)C3)c(Cl)c(-c3c(C)noc3C)n2)c1 [Example 149-3],< 100
6,CNCC(O)COc1cccc(-c2nc(-c3c(C)noc3C)c(C)c(N3CCO[C@@H](CN(C)S(C)(=O)=O)C3)n2)c1 (stereo partly shown) [Example 150-1a],< 100
7,CCOC(=O)N1CC[C@H](Nc2nc(-c3cc(OC[C@H](O)CNC)ccc3Cl)nc(-c3c(C)noc3C)c2C)C1 [Example 150-3],< 100
8,CCOC(=O)N1CC[C@H](Nc2nc(-c3cc(OC[C@H](O)CNC)ccc3Cl)nc(-c3c(C)noc3C)c2Cl)C1 [Example 151-3],< 100
9,CNC[C@@H](O)COc1ccc(Cl)c(-c2nc(N[C@H]3CO[C@@H](C)C3)c(C)c(-c3c(C)noc3C)n2)c1 [Example 152-3],< 100
10,CCOC(=O)N1CCCC[C@@H]1CNc1nc(-c2cc(OC[C@H](O)CNC)ccc2Cl)nc(-c2c(C)noc2C)c1Cl [Example 153-3],< 100
11,CCOC(=O)N1CCCC[C@@H]1CNc1nc(-c2cc(OC[C@H](O)CNC)ccc2Cl)nc(-c2c(C)noc2C)c1C [Example 154-3],< 100
12,CNC[C@@H](O)COc1ccc(Cl)c(-c2nc(N[C@@H]3CCO[C@H](C)C3)c(Cl)c(-c3c(C)noc3C)n2)c1 [Example 155-3],< 100
13,CNC[C@@H](O)COc1cccc(-c2nc(-c3c(C)noc3C)c(C)c(-c3cn(S(C)(=O)=O)c4ncncc34)n2)c1 [Example 156-1a],< 100
14,CNC[C@@H](O)COc1ccc(Cl)c(-c2nc(-c3c(C)noc3C)c(C)c(N3Cc4cc(Cl)cnc4C3)n2)c1 [Example 156-3],< 100
15,CNC[C@@H](O)COc1ccc(Cl)c(-c2nc(-c3c(C)noc3C)c(C)c(N3Cc4cc(F)cnc4C3)n2)c1 [Example 157-3],< 100
16,CNC[C@@H](O)COc1ccc(Cl)c(-c2nc(-c3c(C)noc3C)c(C)c(N3CCC4(CC3)CN(C3CC3)C4)n2)c1 [Example 158-3],< 100
17,CNC[C@@H](O)COc1ccc(Cl)c(-c2nc(-c3c(C)noc3C)c(C)c(N3Cc4ccncc4C3)n2)c1 [Example 159-3],< 100

row,Compound,IC50 [nM]
1,CNC[C@@H](O)COc1ccc(Cl)c(-c2nc(NC[C@H]3CCCN3C(=O)OC(C)C)c(C)c(-c3c(C)noc3C)n2)c1 [Example 160-3],< 100
2,CCOC(=O)N1CCOC[C@@H]1COc1nc(-c2cc(OC[C@H](O)CNC)ccc2Cl)nc(-c2c(C)noc2C)c1C [Example 161-3],< 100
3,CNC[C@@H](O)COc1ccc(Cl)c(-c2nc(N[C@@H]3CO[C@@H](C)C3)c(C)c(-c3c(C)noc3C)n2)c1 [Example 162-3],< 100
4,CNC[C@@H](O)COc1ccc(Cl)c(-c2nc(-c3c(C)noc3C)c(C)c(N3CC(CO)(CO)C3)n2)c1 [Example 163-3],< 100
5,CNC[C@@H](O)COc1ccc(F)c(-c2nc(-c3c(C)noc3C)c(C)c(N3Cc4cc(F)cnc4C3)n2)c1 [Example 164-3],< 100
6,CNC[C@@H](O)COc1ccc(Cl)c(-c2nc(N[C@@H]3CCN(C4CC4)C[C@@H]3F)c(C)c(-c3c(C)noc3C)n2)c1 [Example 167-3],< 100
7,CNC[C@@H](O)COc1ccc(Cl)c(-c2nc(-c3c(C)noc3C)c(Cl)c(N3Cc4cccnc4C3)n2)c1 [Example 168-3],< 100
8,CNC[C@@H](O)COc1ccc(Cl)c(-c2nc(N[C@H]3CCN(C(=O)OC)[C@@H](C)C3)c(C)c(-c3c(C)noc3C)n2)c1 [Example 169-3],< 100
9,CNC[C@@H](O)COc1ccc(Cl)c(-c2nc(N[C@H]3CCN(C4CC4)[C@@H](C)C3)c(C)c(-c3c(C)noc3C)n2)c1 [Example 170-3],< 100
10,Cc1noc(C)c1-c1nc(-c2cc(OC[C@H](O)CN(C)C)ccc2Cl)nc(N[C@H]2CCN(C3CC3)[C@@H](C)C2)c1C [Example 171-3],< 100
11,CNC[C@@H](O)COc1ccc(Cl)c(-c2nc(N[C@H]3C[C@@H](C)O[C@@H](C)C3)c(C)c(-c3c(C)noc3C)n2)c1 [Example 172-3],< 100
12,CNC[C@@H](O)COc1ccc(Cl)c(-c2nc(N[C@H]3C[C@@H](C)O[C@@H](C)C3)c(Cl)c(-c3c(C)noc3C)n2)c1 [Example 173-3],< 100
13,CNC[C@@H](O)COc1ccc(Cl)c(-c2nc(-c3c(C)noc3C)c(C)c(N3CCc4ccncc43)n2)c1 [Example 174-3],< 100
14,CNC[C@@H](O)COc1ccc(Cl)c(-c2nc(-c3c(C)noc3C)c(C)c(N3CC4(CCN(C(=O)OC)C4)C3)n2)c1 [Example 175-3],< 100
15,CNCC(O)COc1cccc(-c2nc(-c3c(C)noc3C)c(C)c(N3CCO[C@@H](CN(C)C(=O)N(C)C)C3)n2)c1 (stereo partly shown) [Example 176-1a],< 100
16,CNC[C@@H](O)COc1ccc(Cl)c(-c2nc(-c3c(C)noc3C)c(C)c(N3CC4(CCN(C5CC5)C4)C3)n2)c1 [Example 176-3],< 100
17,CNC[C@@H](O)COc1ccc(Cl)c(-c2nc(-c3c(C)noc3C)c(C)c(N3CCC4(CN(C(=O)OC)C4)C3)n2)c1 [Example 177-3],< 100

# More lines, now with the values ahead:
row,IC50 [nM],Compound
1,< 100,CNCC(O)COc1cccc(-c2nc(-c3c(C)noc3C)cc(N3CCN(CC(F)(F)F)[C@H](C)C3)n2)c1 (stereo partly shown) [Example 144-1a]
2,< 100,CNCC(O)COc1cccc(-c2nc(-c3c(C)noc3C)cc(N3CCN(CCF)[C@H](C)C3)n2)c1 (stereo partly shown) [Example 145-1a]
3,< 100,CNCC(O)COc1cccc(-c2nc(NC3CCOCC3)c(C)c(-c3c(C)noc3CO)n2)c1 (stereo not shown) [Example 145-3]
4,< 100,CNCC(O)COc1cccc(-c2nc(-c3c(C)noc3C)cc(N3CCN(C(=O)N(C)C)[C@H](C)C3)n2)c1 (stereo partly shown) [Example 146-1a]
5,< 100,CNCC(O)COc1cccc(-c2nc(-c3c(C)noc3C)cc(N3CCN(S(C)(=O)=O)[C@H](C)C3)n2)c1 (stereo partly shown) [Example 147-1a]
6,< 100,CNCC(O)COc1cccc(-c2nc(-c3c(C)noc3C)c(C)c(N3CCO[C@@H](CN(C)C)C3)n2)c1 (stereo partly shown) [Example 148-1a]
7,< 100,CNCC(O)COc1cccc(-c2nc(-c3c(C)noc3C)c(C)c(N3CCO[C@@H](CN(C)C(=O)OC)C3)n2)c1 (stereo partly shown) [Example 149-1a]
8,< 100,CNCC(O)COc1cccc(-c2nc(-c3c(C)noc3C)c(C)c(N3CCO[C@H](CN(C)C)C3)n2)c1 (stereo partly shown) [Example 151-1a]
9,< 100,CC[C@@H]1CN(c2nc(-c3cccc(OCC(O)CNC)c3)nc(-c3c(C)noc3C)c2C)CCN1S(=O)(=O)CC (stereo partly shown) [Example 152-1a]
10,< 100,CC[C@@H]1CN(c2nc(-c3cccc(OCC(O)CNC)c3)nc(-c3c(C)noc3C)c2C)CCN1S(C)(=O)=O (stereo partly shown) [Example 153-1a]
11,< 100,CC[C@H]1CN(c2nc(-c3cccc(OCC(O)CNC)c3)nc(-c3c(C)noc3C)c2C)CCN1S(=O)(=O)CC (stereo partly shown) [Example 154-1a]
12,< 100,CC[C@H]1CN(c2nc(-c3cccc(OCC(O)CNC)c3)nc(-c3c(C)noc3C)c2C)CCN1S(C)(=O)=O (stereo partly shown) [Example 155-1a]
13,< 100,CNCC(O)COc1cccc(-c2nc(NC(C)C3CCOCC3)c(C)c(-c3c(C)noc3C)n2)c1 (stereo not shown) [Example 157-1a]
14,< 100,CNCC(O)COc1cccc(-c2nc(NC3(C)CCOCC3)c(F)c(-c3c(C)noc3C)n2)c1 (stereo not shown) [Example 159-1a]
15,< 100,CNCC(O)COc1cccc(-c2nc(C(=O)NC3CCN(C)CC3)cc(-c3c(C)noc3C)n2)c1 (stereo not shown) [Example 160-1a]
16,< 100,CNCC(O)COc1cccc(-c2nc(-c3c(C)noc3C)c(C)c(N3CCN(C(=O)OCC(F)F)CC3)n2)c1 (stereo not shown) [Example 161-1a]
17,< 100,CNCC(O)COc1cccc(-c2nc(-c3c(C)noc3C)c(C)c(N3CC[C@H](C(=O)N(C)C)C3)n2)c1 (stereo partly shown) [Example 162-1a]
18,< 100,CNCC(O)COc1cccc(-c2nc(N[C@@H]3CC[C@H](O)C3)c(C)c(-c3c(C)noc3C)n2)c1 (stereo partly shown) [Example 163-1a]
19,< 100,CNCC(O)COc1cccc(-c2nc(-c3c(C)noc3C)c(C)c(N3C[C@@H](C)O[C@@H](C)C3)n2)c1 (stereo partly shown) [Example 164-1a]
20,< 100,CNCC(O)COc1cccc(-c2nc(-c3c(C)noc3C)cc(N3CCN(n4c(C)nnc4C)CC3)n2)c1 (stereo not shown) [Example 165-1a]
21,< 100,CNCC(O)COc1cccc(-c2nc(-c3c(C)noc3C)cc(N3CCN(C4CCOCC4)CC3)n2)c1 (stereo not shown) [Example 166-1a]
22,< 100,CCS(=O)(=O)N1CCCC(CNc2nc(-c3cccc(OCC(O)CNC)c3)nc(-c3c(C)noc3C)c2C)C1 (stereo not shown) [Example 167-1a]
23,< 100,CCS(=O)(=O)N1CCC(Nc2nc(-c3cccc(OCC(O)CNC)c3)nc(-c3c(C)noc3C)c2C)CC1 (stereo not shown) [Example 168-1a]
24,< 100,CNC[C@H](O)COc1cccc(-c2nc(NC3CCN(C(=O)OC)CC3)c(C)c(-c3c(C)noc3C)n2)c1 [Example 169-1a]
25,< 100,CNC[C@@H](O)COc1cccc(-c2nc(NC3CCN(C(=O)OC)CC3)c(C)c(-c3c(C)noc3C)n2)c1 [Example 170-1a]
26,< 100,CNCC(O)COc1cccc(-c2nc(NCC3CN(C)CCO3)c(C)c(-c3c(C)noc3C)n2)c1 (stereo not shown) [Example 171-1a]
27,< 100,CCOC(=O)N1CCC(N(C)c2cc(-c3c(C)noc3C)nc(-c3cccc(OCC(O)CNC)c3)n2)CC1 (stereo not shown) [Example 172-1a]
28,< 100,CNCC(O)COc1cccc(-c2nc(-c3c(C)noc3C)cc(N3CCN(CC(F)F)[C@H](C)C3)n2)c1 (stereo partly shown) [Example 174-1a]
29,< 100,CNCC(O)COc1cccc(-c2nc(-c3c(C)noc3C)cc(N3CCN(C)[C@H](C)C3)n2)c1 (stereo partly shown) [Example 175-1a]
30,< 100,CNCC(O)COc1cccc(-c2nc(-c3c(C)noc3C)c(C)c(N3CCC[C@@H](NC)C3)n2)c1 (stereo partly shown) [Example 177-1a]
